# Measured values published in article PMC10141516 (Pharmaceutics, 2023).
# Experiment: Stability study of the APIs in pH buffers (total impurity by HPLC)
# Type: physicochemical
# Experimental: The column used was the Gemini C18 column (5.0 μm, 250 mm). Mobile phase A of the impurity study was prepared with KH2PO4 buffer (v/v, solution adjusted to pH 6.0 with 1 M KOH): acetonitrile: methanol = 85: 10: 5 (v/v/v), and mobile phase B was prepared with 90% acetonitrile. The mobile phase was filtered through a 0.4 μm polypropylene membrane filter and degassed via sonication. The diluted solution was prepared with KH2PO4 buffer (v/v, solution adjusted to pH 6.0 with 1 M KOH) and acetonitrile at a ratio of 7:3 (v/v). The wavelength, flow rate, and injection volume were set to 220 nm, 1.0 mL/min, and 20 μL, respectively. The column and sample thermostats were set to 35 °C and 5 °C, respectively. In the case of the impurity study, the analysis was performed by changing the composition of the mobile phase for 80 min using a gradient elution method for 80 min.
# […] […] We performed a calibration test, and the sample was diluted with a diluted solution and prepared at a concentration of 0.05–1 mg/mL.
# [1] = pH 1.2 buffer, 20 ± 2 °C/60 ± 5% RH, 3 Days
# [2] = pH 1.2 buffer, 20 ± 2 °C/60 ± 5% RH, 7 Days
# [3] = pH 1.2 buffer, 40 ± 2 °C/75 ± 5% RH, 3 Days
# [4] = pH 1.2 buffer, 40 ± 2 °C/75 ± 5% RH, 7 Days
# [5] = pH 2.0 buffer, 20 ± 2 °C/60 ± 5% RH, 3 Days
# [6] = pH 2.0 buffer, 20 ± 2 °C/60 ± 5% RH, 7 Days
# [7] = pH 2.0 buffer, 40 ± 2 °C/75 ± 5% RH, 3 Days
# [8] = pH 2.0 buffer, 40 ± 2 °C/75 ± 5% RH, 7 Days
# [9] = pH 3.0 buffer, 20 ± 2 °C/60 ± 5% RH, 3 Days
# [10] = pH 3.0 buffer, 20 ± 2 °C/60 ± 5% RH, 7 Days
# [11] = pH 3.0 buffer, 40 ± 2 °C/75 ± 5% RH, 3 Days
# [12] = pH 3.0 buffer, 40 ± 2 °C/75 ± 5% RH, 7 Days
# [13] = pH 4.0 buffer, 20 ± 2 °C/60 ± 5% RH, 3 Days
# [14] = pH 4.0 buffer, 20 ± 2 °C/60 ± 5% RH, 7 Days
# [15] = pH 4.0 buffer, 40 ± 2 °C/75 ± 5% RH, 3 Days
# [16] = pH 4.0 buffer, 40 ± 2 °C/75 ± 5% RH, 7 Days
# [17] = pH 5.0 buffer, 20 ± 2 °C/60 ± 5% RH, 3 Days
# [18] = pH 5.0 buffer, 20 ± 2 °C/60 ± 5% RH, 7 Days
# [19] = pH 5.0 buffer, 40 ± 2 °C/75 ± 5% RH, 7 Days
# [20] = pH 6.0 buffer, 20 ± 2 °C/60 ± 5% RH, 3 Days
# [21] = pH 6.0 buffer, 20 ± 2 °C/60 ± 5% RH, 7 Days
# [22] = pH 6.0 buffer, 40 ± 2 °C/75 ± 5% RH, 3 Days
# [23] = pH 6.0 buffer, 40 ± 2 °C/75 ± 5% RH, 7 Days
# [24] = pH 6.8 buffer, 20 ± 2 °C/60 ± 5% RH, 3 Days
# [25] = pH 6.8 buffer, 20 ± 2 °C/60 ± 5% RH, 7 Days
# [26] = pH 6.8 buffer, 40 ± 2 °C/75 ± 5% RH, 3 Days
# [27] = pH 6.8 buffer, 40 ± 2 °C/75 ± 5% RH, 7 Days
# [28] = pH 7.0 buffer, 20 ± 2 °C/60 ± 5% RH, 3 Days
# [29] = pH 7.0 buffer, 20 ± 2 °C/60 ± 5% RH, 7 Days
# [30] = pH 7.0 buffer, 40 ± 2 °C/75 ± 5% RH, 3 Days
# [31] = pH 7.0 buffer, 40 ± 2 °C/75 ± 5% RH, 7 Days
# [32] = pH 8.0 buffer, 20 ± 2 °C/60 ± 5% RH, 3 Days
# [33] = pH 8.0 buffer, 20 ± 2 °C/60 ± 5% RH, 7 Days
# [34] = pH 8.0 buffer, 40 ± 2 °C/75 ± 5% RH, 3 Days
# [35] = pH 8.0 buffer, 40 ± 2 °C/75 ± 5% RH, 7 Days
# [36] = pH 9.0 buffer, 20 ± 2 °C/60 ± 5% RH, 3 Days
# [37] = pH 9.0 buffer, 20 ± 2 °C/60 ± 5% RH, 7 Days
# [38] = pH 9.0 buffer, 40 ± 2 °C/75 ± 5% RH, 3 Days
# [39] = pH 9.0 buffer, 40 ± 2 °C/75 ± 5% RH, 7 Days
# [40] = pH 10.0 buffer, 20 ± 2 °C/60 ± 5% RH, 3 Days
# [41] = pH 10.0 buffer, 20 ± 2 °C/60 ± 5% RH, 7 Days
# [42] = pH 10.0 buffer, 40 ± 2 °C/75 ± 5% RH, 3 Days
# [43] = pH 10.0 buffer, 40 ± 2 °C/75 ± 5% RH, 7 Days
# [44] = pH 11.0 buffer, 20 ± 2 °C/60 ± 5% RH, 3 Days
# [45] = pH 11.0 buffer, 20 ± 2 °C/60 ± 5% RH, 7 Days
# [46] = pH 11.0 buffer, 40 ± 2 °C/75 ± 5% RH, 3 Days
# [47] = pH 11.0 buffer, 40 ± 2 °C/75 ± 5% RH, 7 Days
# [48] = pH 12.0 buffer, 20 ± 2 °C/60 ± 5% RH, 3 Days
# [49] = pH 12.0 buffer, 20 ± 2 °C/60 ± 5% RH, 7 Days
# [50] = pH 12.0 buffer, 40 ± 2 °C/75 ± 5% RH, 3 Days
# [51] = pH 12.0 buffer, 40 ± 2 °C/75 ± 5% RH, 7 Days
smiles,measurement,setting,value
"CCOc1ccc(Cc2cc([C@@H]3O[C@H](CO)[C@@H](O)[C@H](O)[C@H]3O)ccc2Cl)cc1 [Dapagliflozin, (1S)-1,5-Anhydro-1-C-[4-chloro-3-[(4-ethoxyphenyl)methyl]phenyl]-D-glucitol (S)-propane-1,2-diol (1:1) monohydrate]",Total Impurity,[1],0.08%
same,Total Impurity,[2],0.12%
same,Total Impurity,[3],0.11%
same,Total Impurity,[4],0.73%
same,Total Impurity,"pH 1.2 buffer, Initial",0.06%
same,Total Impurity,[5],0.00%
same,Total Impurity,[6],0.00%
same,Total Impurity,[7],0.02%
same,Total Impurity,[8],1.03%
same,Total Impurity,"pH 2.0 buffer, Initial",0.00%
same,Total Impurity,[9],1.30%
same,Total Impurity,[10],1.99%
same,Total Impurity,[11],7.29%
same,Total Impurity,[12],14.76%
same,Total Impurity,"pH 3.0 buffer, Initial",0.06%
same,Total Impurity,[13],0.00%
same,Total Impurity,[14],0.01%
same,Total Impurity,[15],0.04%
same,Total Impurity,[16],0.12%
same,Total Impurity,"pH 4.0 buffer, Initial",0.00%
same,Total Impurity,[17],0.16%
same,Total Impurity,[18],0.26%
same,Total Impurity,[19],4.48%
same,Total Impurity,"pH 5.0 buffer, Initial",0.00%
same,Total Impurity,[20],0.00%
same,Total Impurity,[21],0.04%
same,Total Impurity,[22],0.15%
same,Total Impurity,[23],0.28%
same,Total Impurity,"pH 6.0 buffer, Initial",0.00%
same,Total Impurity,[24],0.01%
same,Total Impurity,[25],0.01%
same,Total Impurity,[26],0.00%
same,Total Impurity,[27],0.12%
same,Total Impurity,"pH 6.8 buffer, Initial",0.00%
same,Total Impurity,[28],0.02%
same,Total Impurity,[29],0.04%
same,Total Impurity,[30],0.7%
same,Total Impurity,[31],0.69%
same,Total Impurity,"pH 7.0 buffer, Initial",0.00%
same,Total Impurity,[32],0.03%
same,Total Impurity,[33],0.05%
same,Total Impurity,[34],0.42%
same,Total Impurity,[35],1.06%
same,Total Impurity,"pH 8.0 buffer, Initial",0.00%
same,Total Impurity,[36],1.27%
same,Total Impurity,[37],1.47%
same,Total Impurity,[38],3.90%
same,Total Impurity,[39],6.31%
same,Total Impurity,"pH 9.0 buffer, Initial",1.02%
same,Total Impurity,[40],0.46%
same,Total Impurity,[41],0.66%
same,Total Impurity,[42],0.30%
same,Total Impurity,[43],4.78%
same,Total Impurity,"pH 10.0 buffer, Initial",0.15%
same,Total Impurity,[44],0.14%
same,Total Impurity,[45],0.22%
same,Total Impurity,[46],1.99%
same,Total Impurity,[47],3.69%
same,Total Impurity,"pH 11.0 buffer, Initial",0.00%
same,Total Impurity,[48],0.75%
same,Total Impurity,[49],1.05%
same,Total Impurity,[50],2.62%
same,Total Impurity,[51],4.11%
same,Total Impurity,"pH 12.0 buffer, Initial",0.00%
"N[C@@H](CC(=O)N1CCn2c(nnc2C(F)(F)F)C1)Cc1cc(F)c(F)cc1F.O.O=P(O)(O)O [Sitagliptin, (R)-3-Amino-1-(3-(trifluoromethyl)-5,6-dihydro-[1,2,4]triazolo[4,3-a]pyrazin-7(8H)-yl)-4-(2,4,5-trifluorophenyl)butan-1-one phosphate monohydrate]",Total Impurity,[1],0.01%
same,Total Impurity,[2],0.09%
same,Total Impurity,[3],0.02%
same,Total Impurity,[4],0.14%
same,Total Impurity,"pH 1.2 buffer, Initial",0.02%
same,Total Impurity,[5],0.03%
same,Total Impurity,[6],0.23%
same,Total Impurity,[7],0.08%
same,Total Impurity,[8],0.59%
same,Total Impurity,"pH 2.0 buffer, Initial",0.02%
same,Total Impurity,[9],0.08%
same,Total Impurity,[10],1.42%
same,Total Impurity,[11],0.37%
same,Total Impurity,[12],5.64%
same,Total Impurity,"pH 3.0 buffer, Initial",0.08%
same,Total Impurity,[13],0.00%
same,Total Impurity,[14],0.01%
same,Total Impurity,[15],0.00%
same,Total Impurity,[16],0.02%
same,Total Impurity,"pH 4.0 buffer, Initial",0.02%
same,Total Impurity,[17],0.00%
same,Total Impurity,[18],0.03%
same,Total Impurity,"pH 5.0 buffer, 40 ± 2 °C/75 ± 5% RH, 3 Days",0.00%
same,Total Impurity,[19],0.03%
same,Total Impurity,"pH 5.0 buffer, Initial",0.03%
same,Total Impurity,[20],0.00%
same,Total Impurity,[21],0.03%
same,Total Impurity,[22],0.01%
same,Total Impurity,[23],0.06%
same,Total Impurity,"pH 6.0 buffer, Initial",0.05%
same,Total Impurity,[24],0.01%
same,Total Impurity,[25],0.06%
same,Total Impurity,[26],0.00%
same,Total Impurity,[27],0.03%
same,Total Impurity,"pH 6.8 buffer, Initial",0.04%
same,Total Impurity,[28],0.00%
same,Total Impurity,[29],0.03%
same,Total Impurity,[30],0.00%
same,Total Impurity,[31],0.03%
same,Total Impurity,"pH 7.0 buffer, Initial",0.00%
same,Total Impurity,[32],0.01%
same,Total Impurity,[33],0.03%
same,Total Impurity,[34],0.00%
same,Total Impurity,[35],0.03%
same,Total Impurity,"pH 8.0 buffer, Initial",0.06%
same,Total Impurity,[36],0.00%
same,Total Impurity,[37],0.00%
same,Total Impurity,[38],0.00%
same,Total Impurity,[39],0.03%
same,Total Impurity,"pH 9.0 buffer, Initial",0.00%
same,Total Impurity,[40],0.00%
same,Total Impurity,[41],0.03%
same,Total Impurity,[42],0.00%
same,Total Impurity,[43],0.03%
same,Total Impurity,"pH 10.0 buffer, Initial",0.02%
same,Total Impurity,[44],0.00%
same,Total Impurity,[45],0.03%
same,Total Impurity,[46],0.00%
same,Total Impurity,[47],0.04%
same,Total Impurity,"pH 11.0 buffer, Initial",0.04%
same,Total Impurity,[48],0.00%
same,Total Impurity,[49],0.03%
same,Total Impurity,[50],0.00%
same,Total Impurity,[51],0.03%
same,Total Impurity,"pH 12.0 buffer, Initial",0.03%
